Paper PMC10135756 (2023)
Blank lines part the entries; values can stand above or below the molecule they belong to.

Key:
[1] = tested on: DNA1 (DNA, other) ACGACACGGAGGCTTAGTTTGCTAAATGGTCATGTCGT; assay: SGI fluorescence; settings: 500 mM NaCl, 20 mM MgCl2; 50 mM Tris pH 7.6; 0.02× SGI, 200 nM DNA1
[2] = tested on: CSS.1-42 (DNA, aptamer) GACGACGCCCGCATGTTCCATGGATAGTCTTGACTAGTCGTC; assay: SGI fluorescence; settings: 100 mM NaCl, 10 mM MgCl2; 20 mM HEPES pH 7.5; 0.1× SGI, 1 μM aptamer
[3] = tested on: CSS.1-42 (DNA, aptamer) GACGACGCCCGCATGTTCCATGGATAGTCTTGACTAGTCGTC; assay: SGI fluorescence increase, microplate; settings: 100 mM NaCl, 10 mM MgCl2; 20 mM HEPES pH 7.5; 0.1× SGI, 1 μM aptamer; with and without 0.01% Triton X-100; up to 6 μM
[4] = tested on: Ade Apt (adenosine aptamer, WT) (DNA, aptamer) ACCTGGGGGAGTATTGCGGAGGAAGGT; assay: ThT fluorescence; settings: 50 mM NaCl, 4 mM MgCl2; 10 mM HEPES pH 7.6; 2 μM ThT, 100 nM aptamer
[5] = tested on: Ade Apt (adenosine aptamer, WT) (DNA, aptamer) ACCTGGGGGAGTATTGCGGAGGAAGGT; assay: ThT displacement fluorescence, quartz cuvette; settings: 50 mM NaCl, 4 mM MgCl2, 10 mM HEPES pH 7.6, 20 °C
[6] = tested on: Ade Apt M2 (DNA, aptamer) ACCTGGGGTAGTATTGCGGAGTAAGGT; assay: ThT displacement fluorescence, quartz cuvette; settings: 50 mM NaCl, 4 mM MgCl2; 10 mM HEPES pH 7.6, 20 °C; 2 μM ThT; up to 500 μM

binding [1]: yes
binding [2]: weak
Compound: CCCN(CCCN(C)C)c1cc(C=C2Sc3ccccc3N2C)c2ccccc2[n+]1-c1ccccc1

binding [3]: yes
Compound: C[C@]12CCC(=O)C=C1CC[C@@H]1[C@@H]2[C@@H](O)C[C@@]2(C)[C@H]1CC[C@]2(O)C(=O)CO

binding [4]: yes
Compound: Cc1ccc2c(c1)sc(-c1ccc(N(C)C)cc1)[n+]2C

binding ([5]; 2 μM ThT, up to 500 μM): no
Compound: Nc1nc2c(ncn2[C@@H]2O[C@H](CO)[C@@H](O)[C@H]2O)c(=O)[nH]1

binding [6]: no
Kd ([5]; 2 μM ThT displaced, 100 nM aptamer, 10 min equilibration, apparent): 16.6 ± 8.4 µM
Compound: Nc1ncnc2c1ncn2[C@@H]1O[C@H](CO)[C@@H](O)[C@H]1O
